Values joined by “and” are separate entries in the source; they are usually repeats but may differ in a detail not shown here. Equal entries are not always repeated. Toxic doses and inconclusive results are not listed. How the source made its calls: active means survival T/C of 150% or more; inactive means T/C below 125% in these data.
System: CD2F1 mice, ip reticulum cell sarcoma, survival T/C
Test: NCI In Vivo Anticancer Drug Screen. Data for tumor model Reticulum Cell Sarcoma (Kelley Mouse) (intraperitoneal) in CD2F1 (CDF1) mice
Details: endpoint: median survival time, higher = longer survival
Protocol: The antitumor activity of compounds was measured in mice bearing transplantable tumors. Survival or tumor size were measured and the results are expressed as the measurement made in the treated group (T) divided by the measurement made in the vehicle treated control group (C). The tumor model used in this assay is Reticulum Cell Sarcoma (Kelley Mouse) (intraperitoneal) in CD2F1 (CDF1) mice

[1] = dose: 31.3 mg/kg/injection, schedule: Q01DX010 (ip), vehicle: saline
[2] = dose: 62.5 mg/kg/injection, schedule: Q01DX010 (ip), vehicle: saline
[3] = dose: 125.0 mg/kg/injection, schedule: Q01DX010 (ip), vehicle: saline
[4] = dose: 250.0 mg/kg/injection, schedule: Q01DX010 (ip), vehicle: saline
[5] = dose: 500.0 mg/kg/injection, schedule: Q01DX010 (ip), vehicle: saline
[6] = dose: 2.0 mg/kg/injection, schedule: Q01DX010 (ip), vehicle: other
[7] = dose: 10.0 mg/kg/injection, schedule: Q01DX010 (ip), vehicle: saline
[8] = dose: 100.0 mg/kg/injection, schedule: Q01DX010 (ip), vehicle: saline
[9] = dose: 200.0 mg/kg/injection, schedule: Q01DX010 (ip), vehicle: saline
[10] = dose: 5.0 mg/kg/injection, schedule: Q01DX010 (ip), vehicle: saline
[11] = dose: 20.0 mg/kg/injection, schedule: Q01DX010 (ip), vehicle: saline
[12] = dose: 40.0 mg/kg/injection, schedule: Q01DX010 (ip), vehicle: saline
[13] = dose: 8.0 mg/kg/injection, schedule: Q01DX010 (ip), vehicle: saline
[14] = dose: 16.0 mg/kg/injection, schedule: Q01DX010 (ip), vehicle: saline
[15] = dose: 32.0 mg/kg/injection, schedule: Q01DX010 (ip), vehicle: saline
[16] = dose: 6.25 mg/kg/injection, schedule: Q01DX010 (ip), vehicle: saline
[17] = dose: 12.5 mg/kg/injection, schedule: Q01DX010 (ip), vehicle: saline
[18] = dose: 25.0 mg/kg/injection, schedule: Q01DX010 (ip), vehicle: saline
[19] = dose: 50.0 mg/kg/injection, schedule: Q01DX010 (ip), vehicle: saline
[20] = dose: 4.0 mg/kg/injection, schedule: Q01DX010 (ip), vehicle: saline
[21] = dose: 400.0 mg/kg/injection, schedule: Q01DX010 (ip), vehicle: saline
[22] = dose: 0.25 mg/kg/injection, schedule: Q01DX010 (ip), vehicle: saline
[23] = dose: 1.0 mg/kg/injection, schedule: Q01DX010 (ip), vehicle: saline
[24] = dose: 1.25 mg/kg/injection, schedule: Q01DX010 (ip), vehicle: saline

Measured: T/C

CCCCNc1ncnc2c1cnn2C
inactive: [1] 95 % of control and 100 % of control | [2] 94 % of control and 102 % of control | [3] 90 % of control and 100 % of control

O=c1cn[nH]c(=O)[nH]1
inactive: [2] 92 % of control and 100 % of control | [3] 95 % of control and 100 % of control | [4] 97 % of control | [5] 90 % of control and 102 % of control

O=C(Nc1ccc(C2=NCCN2)cc1)c1ccc(C(=O)Nc2ccc(C3=NCCN3)cc2)c(Cl)c1
active: dose: 8.0 mg/kg/injection, schedule: Q01DX010 (ip), vehicle: other 168 % of control | dose: 16.0 mg/kg/injection, schedule: Q01DX010 (ip), vehicle: other 151 % of control and 197 % of control
inactive: [6] 111 % of control and 115 % of control | dose: 4.0 mg/kg/injection, schedule: Q01DX010 (ip), vehicle: other 113 % of control | dose: 32.0 mg/kg/injection, schedule: Q01DX010 (ip), vehicle: other 95 % of control

NC(Cc1ccc(N(CCCl)CCCl)cc1)C(=O)O (stereo not drawn)
inactive: [7] 100 % of control

CCN(CC)CCNc1ccc(C)c2sc3ccccc3c(=O)c12
inactive: [8] 106 % of control | [9] 103 % of control and 106 % of control

COc1ccc2c(c1OC)C(=O)O[C@@H]2[C@H]1c2c(cc3c(c2OC)OCO3)CCN1C
inactive: dose: 7.8 mg/kg/injection, schedule: Q01DX010 (ip), vehicle: saline 100 % of control | dose: 15.6 mg/kg/injection, schedule: Q01DX010 (ip), vehicle: saline 100 % of control | [1] 97 % of control and 102 % of control | [2] 91 % of control and 97 % of control | [3] 91 % of control | [4] 91 % of control

CN(C)c1ccc(Nc2c3ccccc3nc3ccccc23)cc1
inactive: dose: 120.0 mg/kg/injection, schedule: Q01DX010 (ip), vehicle: saline 86 % of control
active: dose: 54.0 mg/kg/injection, schedule: Q01DX010 (ip), vehicle: saline 159 % of control and 183 % of control | dose: 80.0 mg/kg/injection, schedule: Q01DX010 (ip), vehicle: saline 183 % of control and 187 % of control

C[C@@H]1C[C@@H]([C@H](O)CC2CC(=O)NC(=O)C2)C(=O)[C@@H](C)C1
inactive: [10] 97 % of control and 100 % of control | [7] 105 % of control and 108 % of control | [11] 120 % of control | [12] 105 % of control

c1ccc(CNc2ncnc3[nH]ncc23)cc1
inactive: [13] 100 % of control and 105 % of control | [14] 100 % of control and 105 % of control | [15] 100 % of control and 105 % of control | dose: 64.0 mg/kg/injection, schedule: Q01DX010 (ip), vehicle: saline 95 % of control and 97 % of control

CS(=O)(=O)OCCCCOS(C)(=O)=O
inactive: [16] 94 % of control and 105 % of control | [17] 97 % of control and 108 % of control | [18] 100 % of control and 102 % of control | [19] 100 % of control and 105 % of control

CS(=O)(=O)OCCC(=O)N1CCN(C(=O)CCOS(C)(=O)=O)CC1
inactive: [17] 111 % of control and 114 % of control | [19] 114 % of control | [8] 114 % of control

O=c1[nH]c(=O)n(C2CC(O)C(CO)O2)cc1F (stereo not drawn)
active: [10] 156 % of control | [11] 171 % of control | [12] 187 % of control

NC(CCSCc1ccc(N(CCCl)CCCl)cc1)C(=O)O (stereo not drawn)
inactive: dose: 4.5 mg/kg/injection, schedule: Q01DX010 (ip), vehicle: saline 100 % of control | dose: 9.0 mg/kg/injection, schedule: Q01DX010 (ip), vehicle: saline 106 % of control and 117 % of control | dose: 18.0 mg/kg/injection, schedule: Q01DX010 (ip), vehicle: saline 106 % of control and 117 % of control | dose: 36.0 mg/kg/injection, schedule: Q01DX010 (ip), vehicle: saline 110 % of control and 111 % of control

Nc1nc2n[nH]nc2c(=O)[nH]1
inactive: dose: 200.0 mg/kg/injection, schedule: Q01DX010 (ip), vehicle: alkali diluted with saline 115 % of control and 86 % of control

O=C(Nc1ccc(C2=NCCCN2)cc1)c1ccc(C(=O)Nc2ccc(C3=NCCCN3)cc2)cc1
inactive: dose: 0.5 mg/kg/injection, schedule: Q01DX010 (ip), vehicle: other 117 % of control and 120 % of control
active: dose: 1.0 mg/kg/injection, schedule: Q01DX010 (ip), vehicle: other 186 % of control and 202 % of control | [6] 248 % of control

OCC1OC(n2cnc3c(Cl)ncnc32)C(O)C1O (stereo not drawn)
inactive: [2] 97 % of control and 100 % of control | [3] 92 % of control and 100 % of control | [4] 95 % of control and 102 % of control | [5] 91 % of control and 92 % of control

CC(CCC(C)OS(C)(=O)=O)OS(C)(=O)=O (stereo not drawn)
inactive: [20] 100 % of control | [13] 103 % of control and 106 % of control | [14] 100 % of control and 109 % of control | [15] 109 % of control and 112 % of control

C[C@H]1C(=O)O[C@@H]2CCN3CC=C(COC(=O)[C@](C)(O)[C@@]1(C)O)[C@H]23
inactive: dose: 3.13 mg/kg/injection, schedule: Q01DX010 (ip), vehicle: saline 103 % of control | [16] 100 % of control | [17] 103 % of control | [18] 121 % of control

O=NN(CCCl)C(=O)NCCCl
inactive: [17] 97 % of control and 110 % of control
active: [16] 194 % of control and 200 % of control

CN(C)c1ccc(/C=C/c2ccnc3ccccc23)cc1
inactive: [10] 100 % of control | [7] 100 % of control and 112 % of control | [11] 96 % of control and 100 % of control | [12] 96 % of control and 103 % of control

CSc1ncnc2nc[nH]c12
inactive: [18] 100 % of control | [19] 100 % of control | [8] 93 % of control | [9] 100 % of control

CS(=O)(=O)OCC(O)C(O)C(O)C(O)COS(C)(=O)=O (stereo not drawn)
inactive: [18] 102 % of control | [19] 100 % of control and 111 % of control | [8] 100 % of control and 102 % of control | [9] 100 % of control and 111 % of control | [21] 110 % of control

CC(=O)N(C)C
inactive: [2] 100 % of control and 107 % of control | [3] 95 % of control and 102 % of control | [4] 97 % of control and 105 % of control | [5] 90 % of control and 100 % of control

C[C@]12C=CC(=O)C=C1CC[C@@H]1[C@@H]2[C@@H](O)C[C@@]2(C)[C@H]1CC[C@]2(O)C(=O)CO
inactive: dose: 12.5 mg/kg/injection, schedule: Q01DX010 (sc), vehicle: steriod suspending solution 97 % of control and 100 % of control | dose: 25.0 mg/kg/injection, schedule: Q01DX010 (sc), vehicle: steriod suspending solution 94 % of control and 100 % of control | dose: 50.0 mg/kg/injection, schedule: Q01DX010 (sc), vehicle: steriod suspending solution 94 % of control and 97 % of control | dose: 100.0 mg/kg/injection, schedule: Q01DX010 (sc), vehicle: steriod suspending solution 94 % of control and 100 % of control

C1CN1c1nc(N2CC2)nc(N2CC2)n1
inactive: dose: 0.13 mg/kg/injection, schedule: Q01DX010 (ip), vehicle: saline 100 % of control | [22] 100 % of control and 103 % of control | [23] 123 % of control

Nc1nc(F)nc2c1ncn2C1OC(CO)C(O)C1O (stereo not drawn)
inactive: [22] 100 % of control | dose: 0.5 mg/kg/injection, schedule: Q01DX010 (ip), vehicle: saline 100 % of control and 105 % of control | [23] 91 % of control and 103 % of control | dose: 2.0 mg/kg/injection, schedule: Q01DX010 (ip), vehicle: saline 100 % of control and 105 % of control | [20] 88 % of control

Oc1cc(CN(CCCl)CCCl)c(O)cc1CN(CCCl)CCCl
inactive: dose: 0.63 mg/kg/injection, schedule: Q01DX010 (ip), vehicle: saline 100 % of control | [24] 100 % of control | dose: 2.5 mg/kg/injection, schedule: Q01DX010 (ip), vehicle: saline 106 % of control | [10] 100 % of control

CN(C)c1nc(N(C)C)nc(N(C)C)n1
inactive: dose: 18.8 mg/kg/injection, schedule: Q01DX010 (ip), vehicle: saline 100 % of control and 103 % of control | dose: 37.5 mg/kg/injection, schedule: Q01DX010 (ip), vehicle: saline 93 % of control and 106 % of control | dose: 75.0 mg/kg/injection, schedule: Q01DX010 (ip), vehicle: saline 100 % of control and 109 % of control | dose: 150.0 mg/kg/injection, schedule: Q01DX010 (ip), vehicle: saline 100 % of control and 106 % of control

Nc1nc(=S)c2[nH]cnc2[nH]1
inactive: [10] 105 % of control and 120 % of control | [7] 105 % of control and 108 % of control
active: [24] 150 % of control and 170 % of control

CN(C)/N=N/c1nc[nH]c1C(N)=O
inactive: [19] 100 % of control | [8] 107 % of control and 120 % of control | [21] 100 % of control

N#CCSc1ncnc2nc[nH]c12
inactive: dose: 7.5 mg/kg/injection, schedule: Q01DX010 (ip), vehicle: saline 100 % of control | dose: 15.0 mg/kg/injection, schedule: Q01DX010 (ip), vehicle: saline 103 % of control | dose: 30.0 mg/kg/injection, schedule: Q01DX010 (ip), vehicle: saline 100 % of control and 103 % of control | dose: 60.0 mg/kg/injection, schedule: Q01DX010 (ip), vehicle: saline 103 % of control and 106 % of control

COc1cc(-c2ccc(Nc3ccccc3C(=O)O)c(OC)c2)ccc1Nc1ccccc1C(=O)O
inactive: [19] 105 % of control | [8] 100 % of control

— PubChem BioAssay AID340 (DTP/NCI, 2004)
